Consider two compounds from patent US12226381B2, “Composition of fused tricyclic gamma-amino acid derivatives and the preparation thereof” (SICHUAN HAISCO PHARMACEUTICAL CO., LTD., priority 2018, dated 2025).

Each structure is given as a SMILES string.

The subject of the assay is CCI molded SD rats. In words: Rat CCI-induced nociception sensitization model, mechanical pain threshold. The following applies: single oral administration; for mechanical pain threshold: FIGS. 2 and 3. It is filed as in vivo. The procedure:
3. Rat CCI-Induced Nociception Sensitization Model
SD rats of 160-180 g were purchased from Charles River (Beijing) with a license number of sCXK (Beijing)-2012-001 and a qualification number of 11400700254251. The surgery was performed to establish the CCI model as follows: the animals ware first anesthetized, then the left posterior sciatic nerve was exposed. A 2 mm long PE-90 catheter was applied to the middle site of the sciatic nerve. Finally the muscle and skin were sutured. Adaptation of the animal's left hind limb at 15g was carried out from day 10 after the surgery, three times a week.
The baseline testing was performed 17 days after surgery (starting from 2g at the time of testing, with an upper limit of 8g and a lower limit of 1g which is the −24h point), with a pain threshold of 1-4g as a grouping criterion. Grouping was done according to baseline test results, with 10 animals per group. The animals in the group were fasted but given water overnight. On the second day, mechanical pain values were tested at 2 h, 4 h and 6 h after oral/intragastric administration. The test started at 8 g, with an upper limit of 15g and a lower limit of 1g.
The data were processed according to equation (1) to calculate the PWT 50% value, where Xf is the log value of the final test fibers used in the test, k is a table value (Chaplan et al., 1994), and δ is the mean difference (here 0.224). PWT50%(g)=(10[Xf+kδ])/10000 [equation (1)]
The data were expressed in a form of mean±standard deviation (X±s) and were statistically analyzed using one-way ANOVA and Dunnett's t test (Graphpad prism 6.01).

Turning to `CC(C)C[C@H](CN)CC(=O)O` [pregabalin], the effective dose amounted to 10 mg/kg and the mechanical pain threshold entry is “significantly increased”.

Turning to `NC[C@@]1(CC(=O)O)[C@@H]2CC[C@H]3C[C@@H]2[C@@H]1C3.O=S(=O)(O)c1ccccc1` [Compound 1], the effective dose turned out to be 3 mg/kg and the mechanical pain threshold entry is “significantly increased”.
